Legend:
[1] = test system: MYCN-amplified neuroblastoma; conditions: xenograft model; cited from earlier work
Myc-AURKA complex = Myc-AURKA complex (Homo sapiens, UniProt O14965); conditions: MYCN-amplified neuroblastomas; cited from earlier work
[2] = test system: Siglec-7 ligands on PEER cells; experiment: Siglec-7 ligand display (Siglec-7-Fc staining, flow cytometry) on PEER cells after MYC or CDK7/9 inhibition; format: cell-based, human; conditions: 48 hours, 10058-F4 at 100 μM
Procedure: (§1) ST6GALNAC4 or pharmacologic MYC inhibition for 48 hours by incubation with 100 μM 10058-F4 (n(control)=8, n(KO)=4, n(inhibitor)=6, two-tailed Mann-Whitney U test). Data presented as mean ±s.d. Panel C: Representative Western blot for ST6GALNAC4 in PEER cells following MYC inhibition with 100 μM 10058-F4 for 48 hours. Data representative of two independent experiments. Panel D: Workflow to collect primary T-ALL from patients, treat with a MYC inhibitor (10058-F4), and quantify Siglec-7 ligands. Panel E: Siglec-7 ligands on patient T-ALL liquid biopsies treated with the indicated concentration of 10058-F4 for 48 hours. Data represent three donors. Panel F: Correlation of ST6GALNAC4 and MYC mRNA (RNA-seq) gene expression across all hematopoietic tumor samples (n=106) in the CCLE with MYC expression>3. Correlation determined by least squares regression. Panel G: Survival Z-score heatmap for each sialyltransferase across each hematopoietic tumor within the PRECOG database. […] Panel H: Siglec-7 ligand display by KARPAS-422 DLBCL cells following treatment with 10058-F4 for 48 hours (n=3 per group, two-tailed Student's t-test). Data presented as mean±s.d. Panel I: Survival stratified by median MYC and ST6GALNAC4 expression in a cohort of DLBCL patients (GSE4475). HR, hazard ratio from Cox Proportional Hazards model. […] Monocyte prevalence was calculated as a fraction of all lymphocytes. […]

ST6GALNAC4 = experiment: Western blot for ST6GALNAC4 in PEER cells after MYC inhibition; format: cell-based, human; conditions: 100 μM 10058-F4 for 48 hours
Procedure: as §1

[3] = test system: MYC-overexpressing T-cell acute lymphoblastic leukemia, mixed-lineage leukemia, neuroblastomas, small cell lung cancers; conditions: cited from earlier work
[4] = test system: hematopoietic cancers and pancreatic ductal adenocarcinoma (PDAC) exhibiting C-MYC overexpression; conditions: in vitro and in vivo; cited from earlier work
c-Myc = conditions: P53-mutant human hepatocellular carcinoma cells; cited from earlier work
[5] = test system: Siglec-7 ligands on primary human T-ALL cells; experiment: Siglec-7 ligands on patient T-ALL liquid biopsies treated with MYC inhibitor; format: cell-based; conditions: FACS-sorted primary T-ALL cells, 48 hours; two of three patients had Siglec-7-Fc binding
Procedure: as §1, with “mean±s.d.” for “mean±s.d. Panel I: Survival stratified by median MYC and ST6GALNAC4 expression in a cohort of DLBCL patients (GSE4475). HR, hazard ratio from Cox Proportional Hazards model.”
Assessed next was whether T-ALL liquid biopsies display Siglec-7 ligands susceptible to MYC regulation. […]

[6] = test system: Siglec-7 ligands on KARPAS-422 DLBCL cells; experiment: Siglec-7 ligand display by KARPAS-422 DLBCL cells after MYC inhibition; format: cell-based, human; conditions: 48 hours
Procedure: as §1

Myc-Max complex = target: T1, Myc-Max complex (Homo sapiens, UniProt P01106); conditions: HL60 cells; cited from earlier work
T1 construct: host or cells: HL60 cells (for 10058-F4 only)
T1 sequence (P01106 whole entry, one chain of several): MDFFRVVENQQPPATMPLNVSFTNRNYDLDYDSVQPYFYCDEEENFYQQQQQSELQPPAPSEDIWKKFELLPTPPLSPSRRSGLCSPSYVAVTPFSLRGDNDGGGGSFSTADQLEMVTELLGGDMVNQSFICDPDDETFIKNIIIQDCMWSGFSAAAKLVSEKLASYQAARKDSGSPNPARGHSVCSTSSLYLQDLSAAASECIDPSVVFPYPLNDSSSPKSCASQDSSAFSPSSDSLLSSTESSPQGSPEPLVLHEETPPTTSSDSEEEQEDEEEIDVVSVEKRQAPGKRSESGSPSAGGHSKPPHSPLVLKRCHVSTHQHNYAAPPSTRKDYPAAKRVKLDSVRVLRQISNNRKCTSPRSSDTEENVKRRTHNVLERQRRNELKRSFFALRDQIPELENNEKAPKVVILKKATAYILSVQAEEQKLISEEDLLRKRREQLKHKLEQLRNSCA

Sequence of Myc-AURKA complex (O14965 whole entry, one chain of several): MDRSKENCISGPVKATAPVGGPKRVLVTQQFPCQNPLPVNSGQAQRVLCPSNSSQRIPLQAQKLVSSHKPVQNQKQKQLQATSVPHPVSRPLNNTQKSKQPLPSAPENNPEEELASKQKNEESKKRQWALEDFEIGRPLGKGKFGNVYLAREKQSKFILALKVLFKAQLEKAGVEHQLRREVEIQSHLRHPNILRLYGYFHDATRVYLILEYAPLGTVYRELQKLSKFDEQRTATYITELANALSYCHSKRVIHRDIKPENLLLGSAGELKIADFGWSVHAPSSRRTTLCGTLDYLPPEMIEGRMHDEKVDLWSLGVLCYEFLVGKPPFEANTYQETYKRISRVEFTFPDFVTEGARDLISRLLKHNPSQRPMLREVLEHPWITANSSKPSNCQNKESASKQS

Compound: CC(=O)c1cc([N+](=O)[O-])c(Sc2ccc(F)cc2F)s1 [P22077]
- growth of MYCN-amplified neuroblastoma [1]: markedly suppressed growth

Compound: O=C(O)c1ccc(Nc2ncc3c(n2)-c2ccc(Cl)cc2C(c2c(F)cccc2F)=NC3)cc1 [MLN8054]
- N-Myc degradation and tumor regression (Myc-AURKA complex): N-Myc degradation and tumor regression

Compound: CN(C)C/C=C/C(=O)Nc1ccc(C(=O)Nc2cccc(Nc3ncc(Cl)c(-c4c[nH]c5ccccc45)n3)c2)cc1 [THZ1]
- Siglec-7-Fc binding (Siglec-7 ligands) [2]: reduced Siglec-7-Fc binding
- ST6GALNAC4 protein expression (ST6GALNAC4): diminished ST6GALNAC4 protein expression
- anti-tumor effects [3]: potent anti-tumor effects

Compound: Cc1sc2c(c1C)C(c1ccc(Cl)cc1)=N[C@@H](CC(=O)OC(C)(C)C)c1nnc(C)n1-2 [JQ1]
- anti-cancer effects [4]: potent anti-cancer effects both in vitro and in vivo

Compound: COc1cc(Nc2ncc3c(n2)-c2ccc(Cl)cc2C(c2c(F)cccc2OC)=NC3)ccc1C(=O)O [MLN8237]
- c-Myc degradation (c-Myc): induced c-Myc degradation
- N-Myc degradation and tumor regression (Myc-AURKA complex): N-Myc degradation and tumor regression

Compound: CCc1ccc(/C=C2/SC(=S)NC2=O)cc1 [10058-F4]
- Siglec-7-Fc binding (Siglec-7 ligands) [2]: reduced Siglec-7-Fc binding
- ST6GALNAC4 protein expression (ST6GALNAC4): diminished ST6GALNAC4 protein expression
- Siglec-7 ligand display [5]: reduced Siglec-7 ligand display
- reduction in Siglec-7 ligand abundance [6]: 70%
- disruption of the Myc-Max complex (Myc-Max complex): capable of disrupting the Myc-Max complex

— patent publication US20220283165A1, “Methods of Enhancing Immunogenicity of Cancers” (The Board of Trustees of the Leland Stanford Junior …, priority 2019, published 2022)
